#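 Briefly, cells in 96-well plates were exposed to five compound concentrations for 48 h, and endpoints were estimated by linear interpolation. GI50 is the concentration that inhibits growth by half.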 Activity calls are given as the source filed them. Rule as the data show it: active = GI50 up to about 1.1 µM and inactive = higher.
# How the values were obtained:
# Assay in all cases: inhibition of tumour cell growth, NCI panel, 48 h
# HCT-116 = test system: HCT-116
# Malme-3M = test system: Malme-3M
# OVCAR-5 = test system: OVCAR-5
# SNB-75 = test system: SNB-75
# RPMI-8226 = test system: RPMI-8226
# 786-0 = test system: 786-0
# OVCAR-3 = test system: OVCAR-3
# HCC 2998 = test system: HCC 2998
# SK-MEL-5 = test system: SK-MEL-5
# PC-3 = test system: PC-3
# COLO 205 = test system: COLO 205
# MDA-MB-435 = test system: MDA-MB-435
# NCI-H23 = test system: NCI-H23
# A498 = test system: A498
# MCF7 = test system: MCF7
# K562 = test system: K562
# MDA-N = test system: MDA-N
# NCI-H522 = test system: NCI-H522
# UO-31 = test system: UO-31
# MDA-MB-231 = test system: MDA-MB-231
# ACHN = test system: ACHN
# HCT-15 = test system: HCT-15
# U-251 = test system: U-251
# IGROV-1 = test system: IGROV-1
# UACC-62 = test system: UACC-62
# SF-295 = test system: SF-295
# OVCAR-8 = test system: OVCAR-8
# NCI-H226 = test system: NCI-H226
# MOLT-4 = test system: MOLT-4
# SW-620 = test system: SW-620
# NCI-H460 = test system: NCI-H460
# SR = test system: SR
# RXF 393 = test system: RXF 393
# SF-539 = test system: SF-539
# SK-OV-3 = test system: SK-OV-3
# DU-145 = test system: DU-145
# CCRF-CEM = test system: CCRF-CEM
# KM12 = test system: KM12
# HOP-92 = test system: HOP-92
# SK-MEL-2 = test system: SK-MEL-2
# A549 = test system: A549
# SN12C = test system: SN12C
# LOX IMVI = test system: LOX IMVI
# HL-60 = test system: HL-60
# EKVX = test system: EKVX
# CAKI-1 = test system: CAKI-1
# SNB-19 = test system: SNB-19
# HOP-62 = test system: HOP-62
# UACC-257 = test system: UACC-257
# M14 = test system: M14
# SK-MEL-28 = test system: SK-MEL-28
# NCI/ADR-RES = test system: NCI/ADR-RES
# BT-549 = test system: BT-549
# OVCAR-4 = test system: OVCAR-4
# HT-29 = test system: HT-29
# T47D = test system: T47D
# SF-268 = test system: SF-268
# Hs-578T = test system: Hs-578T
# TK-10 = test system: TK-10
smiles,measurement,setting,value
O/N=C1\SC(=N\O)/C(=N/O)S\C1=N/O,GI50,HCT-116,68.4 µM (inactive)
same,GI50,Malme-3M,> 100 µM (inactive)
same,GI50,OVCAR-5,> 100 µM (inactive)
same,GI50,SNB-75,> 100 µM (inactive)
same,GI50,RPMI-8226,83.2 µM (inactive)
same,GI50,786-0,> 100 µM (inactive)
same,GI50,OVCAR-3,> 100 µM (inactive)
same,GI50,HCC 2998,> 100 µM (inactive)
same,GI50,SK-MEL-5,38.7 µM (inactive)
same,GI50,PC-3,> 100 µM (inactive)
same,GI50,COLO 205,> 100 µM (inactive)
same,GI50,MDA-MB-435,> 100 µM (inactive)
same,GI50,NCI-H23,76.6 µM (inactive)
same,GI50,A498,> 100 µM (inactive)
same,GI50,MCF7,> 100 µM (inactive)
same,GI50,K562,51.2 µM (inactive)
same,GI50,MDA-N,73.8 µM (inactive)
same,GI50,NCI-H522,16.2 µM (inactive)
same,GI50,UO-31,87.5 µM (inactive)
same,GI50,MDA-MB-231,> 100 µM (inactive)
same,GI50,ACHN,> 100 µM (inactive)
same,GI50,HCT-15,> 100 µM
same,GI50,U-251,> 100 µM (inactive)
same,GI50,IGROV-1,> 100 µM (inactive)
same,GI50,UACC-62,94.8 µM (inactive)
same,GI50,SF-295,> 100 µM (inactive)
same,GI50,OVCAR-8,> 100 µM (inactive)
same,GI50,NCI-H226,> 100 µM (inactive)
same,GI50,MOLT-4,> 100 µM (inactive)
same,GI50,SW-620,> 100 µM (inactive)
same,GI50,NCI-H460,> 100 µM (inactive)
same,GI50,SR,38.2 µM (inactive)
same,GI50,RXF 393,> 100 µM (inactive)
same,GI50,SF-539,> 100 µM (inactive)
same,GI50,SK-OV-3,> 100 µM (inactive)
same,GI50,DU-145,> 100 µM (inactive)
same,GI50,CCRF-CEM,> 100 µM (inactive)
same,GI50,KM12,79.4 µM (inactive)
same,GI50,HOP-92,> 100 µM (inactive)
same,GI50,SK-MEL-2,> 100 µM (inactive)
same,GI50,A549,> 100 µM (inactive)
same,GI50,SN12C,> 100 µM (inactive)
same,GI50,LOX IMVI,> 100 µM (inactive)
same,GI50,HL-60,21 µM (inactive)
same,GI50,EKVX,> 100 µM (inactive)
same,GI50,CAKI-1,> 100 µM (inactive)
same,GI50,SNB-19,> 100 µM (inactive)
same,GI50,HOP-62,> 100 µM (inactive)
same,GI50,UACC-257,> 100 µM (inactive)
same,GI50,M14,> 100 µM (inactive)
same,GI50,SK-MEL-28,> 100 µM (inactive)
same,GI50,NCI/ADR-RES,> 100 µM (inactive)
same,GI50,BT-549,> 100 µM (inactive)
same,GI50,OVCAR-4,> 100 µM (inactive)
same,GI50,HT-29,> 100 µM (inactive)
CC(=O)N(C)c1cc(NCc2ccccc2)ccc1OCc1ccccc1,GI50,HCT-116,31.8 µM (inactive)
same,GI50,Malme-3M,16.1 µM (inactive)
same,GI50,OVCAR-5,19.3 µM (inactive)
same,GI50,SNB-75,22.2 µM (inactive)
same,GI50,T47D,36.6 µM (inactive)
same,GI50,786-0,27.9 µM (inactive)
same,GI50,OVCAR-3,16.6 µM (inactive)
same,GI50,HCC 2998,18.8 µM (inactive)
same,GI50,SK-MEL-5,18.3 µM (inactive)
same,GI50,COLO 205,22.3 µM (inactive)
same,GI50,MDA-MB-435,16.6 µM (inactive)
same,GI50,NCI-H23,24.4 µM (inactive)
same,GI50,A498,16.3 µM (inactive)
same,GI50,MCF7,17.9 µM (inactive)
same,GI50,K562,22.1 µM (inactive)
same,GI50,NCI-H522,17.9 µM (inactive)
same,GI50,UO-31,14.8 µM (inactive)
same,GI50,MDA-MB-231,15.8 µM (inactive)
same,GI50,ACHN,17.3 µM (inactive)
same,GI50,HCT-15,19.1 µM
same,GI50,U-251,17.4 µM (inactive)
same,GI50,IGROV-1,16.4 µM (inactive)
same,GI50,UACC-62,16.4 µM (inactive)
same,GI50,SF-295,15.4 µM (inactive)
same,GI50,OVCAR-8,17.3 µM (inactive)
same,GI50,NCI-H226,18.4 µM (inactive)
same,GI50,MOLT-4,25.8 µM (inactive)
same,GI50,SW-620,24.9 µM (inactive)
same,GI50,SF-268,14.7 µM (inactive)
same,GI50,NCI-H460,17.9 µM (inactive)
same,GI50,SR,15.5 µM (inactive)
same,GI50,RXF 393,14.8 µM (inactive)
same,GI50,SF-539,17.3 µM (inactive)
same,GI50,SK-OV-3,21.7 µM (inactive)
same,GI50,Hs-578T,31.4 µM (inactive)
same,GI50,DU-145,17.1 µM (inactive)
same,GI50,CCRF-CEM,23.6 µM (inactive)
same,GI50,KM12,21.3 µM (inactive)
same,GI50,HOP-92,12.7 µM (inactive)
same,GI50,SK-MEL-2,16.9 µM (inactive)
same,GI50,A549,18.3 µM (inactive)
same,GI50,SN12C,17.5 µM (inactive)
same,GI50,LOX IMVI,20 µM (inactive)
same,GI50,HL-60,26 µM (inactive)
same,GI50,EKVX,18.5 µM (inactive)
same,GI50,CAKI-1,17.7 µM (inactive)
same,GI50,TK-10,17.7 µM (inactive)
same,GI50,SNB-19,17.9 µM (inactive)
same,GI50,HOP-62,33 µM (inactive)
same,GI50,UACC-257,17.3 µM (inactive)
same,GI50,M14,22.1 µM (inactive)
same,GI50,SK-MEL-28,18.9 µM (inactive)
same,GI50,NCI/ADR-RES,20.2 µM (inactive)
same,GI50,BT-549,20.6 µM (inactive)
same,GI50,OVCAR-4,18.7 µM (inactive)
same,GI50,HT-29,20.6 µM (inactive)
COc1ccccc1N1C(=O)CSC1c1cccc(Oc2ccccc2)c1 (centres undefined),GI50,HCT-116,17.6 µM (inactive)
same,GI50,Malme-3M,16.3 µM (inactive)
same,GI50,OVCAR-5,18.5 µM (inactive)
same,GI50,SNB-75,18.7 µM (inactive)
same,GI50,T47D,18.3 µM (inactive)
same,GI50,786-0,17.7 µM (inactive)
same,GI50,OVCAR-3,21.1 µM (inactive)
same,GI50,SK-MEL-5,16.3 µM (inactive)
same,GI50,PC-3,17.6 µM (inactive)
same,GI50,COLO 205,18.6 µM (inactive)
same,GI50,MDA-MB-435,9.82 µM (inactive)
same,GI50,NCI-H23,20.8 µM (inactive)
same,GI50,A498,20.7 µM (inactive)
same,GI50,MCF7,18.2 µM (inactive)
same,GI50,K562,32.8 µM (inactive)
same,GI50,NCI-H522,16.2 µM (inactive)
same,GI50,UO-31,17.8 µM (inactive)
same,GI50,MDA-MB-231,16.4 µM (inactive)
same,GI50,ACHN,20.9 µM (inactive)
same,GI50,HCT-15,17.2 µM
same,GI50,U-251,17 µM (inactive)
same,GI50,UACC-62,14.9 µM (inactive)
same,GI50,SF-295,19.4 µM (inactive)
same,GI50,OVCAR-8,17.9 µM (inactive)
same,GI50,NCI-H226,20.3 µM (inactive)
same,GI50,MOLT-4,29.9 µM (inactive)
same,GI50,SW-620,21.9 µM (inactive)
same,GI50,SF-268,17.5 µM (inactive)
same,GI50,NCI-H460,18.2 µM (inactive)
same,GI50,SR,24.8 µM (inactive)
same,GI50,RXF 393,17.8 µM (inactive)
same,GI50,SF-539,17.2 µM (inactive)
same,GI50,SK-OV-3,34.8 µM (inactive)
same,GI50,Hs-578T,20.9 µM (inactive)
same,GI50,DU-145,18.7 µM (inactive)
same,GI50,CCRF-CEM,26.1 µM (inactive)
same,GI50,KM12,20.1 µM (inactive)
same,GI50,HOP-92,12.7 µM (inactive)
same,GI50,SK-MEL-2,15.8 µM (inactive)
same,GI50,A549,21.8 µM (inactive)
same,GI50,SN12C,17.2 µM (inactive)
same,GI50,LOX IMVI,17.1 µM (inactive)
same,GI50,HL-60,20.9 µM (inactive)
same,GI50,EKVX,17.2 µM (inactive)
same,GI50,CAKI-1,23.8 µM (inactive)
same,GI50,TK-10,25.4 µM (inactive)
same,GI50,SNB-19,23.8 µM (inactive)
same,GI50,HOP-62,20.1 µM (inactive)
same,GI50,UACC-257,16.7 µM (inactive)
same,GI50,M14,17.7 µM (inactive)
same,GI50,SK-MEL-28,17.8 µM (inactive)
same,GI50,NCI/ADR-RES,19.7 µM (inactive)
same,GI50,BT-549,17.1 µM (inactive)
same,GI50,OVCAR-4,18.5 µM (inactive)
same,GI50,HT-29,20.1 µM (inactive)
Clc1ccc2sc(-n3ccc4ccccc43)nc2c1,GI50,OVCAR-5,> 100 µM (inactive)
same,GI50,SNB-75,49.3 µM (inactive)
same,GI50,HCC 2998,> 100 µM (inactive)
same,GI50,SK-MEL-5,> 100 µM (inactive)
same,GI50,PC-3,67.6 µM (inactive)
same,GI50,NCI-H23,45.7 µM (inactive)
same,GI50,A498,> 100 µM (inactive)
same,GI50,MCF7,26.1 µM (inactive)
same,GI50,K562,97.1 µM (inactive)
same,GI50,UO-31,> 100 µM (inactive)
same,GI50,ACHN,> 100 µM (inactive)
same,GI50,HCT-15,> 100 µM
same,GI50,U-251,> 100 µM (inactive)
same,GI50,IGROV-1,> 100 µM (inactive)
same,GI50,UACC-62,> 100 µM (inactive)
same,GI50,OVCAR-8,> 100 µM (inactive)
same,GI50,MOLT-4,55.7 µM (inactive)
same,GI50,SW-620,> 100 µM (inactive)
same,GI50,SF-268,> 100 µM (inactive)
same,GI50,NCI-H460,> 100 µM (inactive)
same,GI50,RXF 393,13.3 µM (inactive)
same,GI50,SK-OV-3,> 100 µM (inactive)
same,GI50,Hs-578T,72.6 µM (inactive)
same,GI50,CCRF-CEM,> 100 µM (inactive)
same,GI50,SN12C,> 100 µM (inactive)
same,GI50,LOX IMVI,> 100 µM (inactive)
same,GI50,EKVX,> 100 µM (inactive)
same,GI50,TK-10,> 100 µM (inactive)
same,GI50,SNB-19,24.2 µM (inactive)
same,GI50,SK-MEL-28,> 100 µM (inactive)
same,GI50,NCI/ADR-RES,> 100 µM (inactive)
same,GI50,BT-549,84.3 µM (inactive)
same,GI50,HT-29,75.9 µM (inactive)

# — ChEMBL document CHEMBL1201862, “PubChem BioAssay data set” (2004)
